Test results taken from patent US20060183716A1, “2-Methylene-19-nor-(20S-24S)-1alpha,25-dihydroxyvitamin D2” (Wisconsin Alumni Research Foundation, priority 2005, published 2006).

Assays:
calcemic activity = conditions: as described in the '352, '861 and '622 patents; cited from earlier work
vitamin D receptors = target: T1, vitamin D receptors (Homo sapiens, UniProt P11473); conditions: as described in the '352, '861 and '622 patents; cited from earlier work
T1 sequence (P11473 1-427): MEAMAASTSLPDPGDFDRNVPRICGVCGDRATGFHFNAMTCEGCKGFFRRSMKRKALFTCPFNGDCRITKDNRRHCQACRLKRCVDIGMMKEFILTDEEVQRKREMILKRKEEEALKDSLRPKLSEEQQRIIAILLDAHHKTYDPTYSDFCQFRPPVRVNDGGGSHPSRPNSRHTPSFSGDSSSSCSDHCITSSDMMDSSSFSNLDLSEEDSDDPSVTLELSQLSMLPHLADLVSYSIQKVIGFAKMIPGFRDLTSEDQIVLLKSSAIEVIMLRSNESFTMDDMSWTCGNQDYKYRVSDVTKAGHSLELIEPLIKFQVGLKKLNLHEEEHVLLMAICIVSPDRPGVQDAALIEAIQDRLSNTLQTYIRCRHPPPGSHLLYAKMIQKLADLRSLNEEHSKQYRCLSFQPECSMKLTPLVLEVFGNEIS

cell differentiation = conditions: as described in the '352, '861 and '622 patents; cited from earlier work
[1] = test system: intestinal calcium transport; assay: Intestinal calcium transport (everted gut sac method); type: in vivo, Sprague-Dawley rats; conditions: rats on 0.02% Ca diet, four consecutive ip doses, FIG. 5
Description: (§1) FIG. 5 is a bar graph comparing the intestinal calcium transport activity of (20S/24S) 2-MD2 with that of 1,25(OH)2D3. Male, weanling Sprague-Dawley rats were placed on Diet 11 (0.47% Ca) diet +AEK for one week followed by Diet 11 (0.02% Ca) +AEK for 3 weeks. The rats were then switched to a diet containing 0.47% Ca for one week followed by two weeks on a diet containing 0.02% Ca. Dose administration began during the last week on 0.02% calcium diet. Four consecutive ip doses were given approximately 24 hours apart. Twenty-four hours after the last dose, blood was collected from the severed neck and the concentration of serum calcium determined as a measure of bone calcium mobilization. The first 10 cm of the intestine was also collected for intestinal calcium transport analysis using the everted gut sac method.

[2] = test system: 24-hydroxylase (24Ohase) gene promoter in ROS 17/2.8 (bone) cells; assay: In vitro transcription assay (24-hydroxylase promoter luciferase reporter); type: cell-based; conditions: ROS 17/2.8 cells, sixteen hours after dosing, FIG. 3
Procedure: FIG. 3 is a graph comparing the in vitro transcription activity of (20S/24S) 2-MD2 with that of 1,25(OH)2D3.
Transcription activity was, measured in ROS 17/2.8 (bone) cells that were stably transfected with a 24-hydroxylase (24Ohase) gene promoter upstream of a luciferase reporter gene (Arbour et al., 1998). Cells were given a range of doses. Sixteen hours after dosing the cells were harvested and luciferase activities were measured using a luminometer. RLU=relative luciferase units.

[3] = test system: Human promyelocytic leukemia (HL60) cells; assay: HL-60 cell differentiation (nitro blue tetrazolium reduction); type: cell-based; conditions: compared with 1,25(OH)2D3; four days; FIG. 2
Procedure: FIG. 2 is a graph comparing the percent HL-60 cell differentiation as a function of the concentration of (20S/24S) 2-MD2 with that of 1,25(OH)2D3.
The study drugs were dissolved in ethanol and the concentrations determined using UV spectrophotometry. Serial dilutions were prepared so that a range of drug concentrations could be tested without changing the final concentration of ethanol (≦0.2%) present in the cell cultures.
Human promyelocytic leukemia (HL60) cells were grown in RPMI-1640 medium containing 10% fetal bovine serum. The cells were incubated at 37° C. in the presence of 5% CO2.
HL60 cells were plated at 1.2×10^5 cells/ml. Eighteen hours after plating, cells in duplicate were treated with drug. Four days later, the cells were harvested and a nitro blue tetrazolium reduction assay was performed (Collins et al., 1979; J. Exp. Med. 149:969-974). The percentage of differentiated cells was determined by counting a total of 200 cells and recording the number that contained intracellular black-blue formazan deposits. Verification of differentiation to monocytic cells was determined by measuring phagocytic activity (data not shown).

[4] = test system: bone calcium mobilization; assay: Bone calcium mobilization (serum calcium); type: in vivo, Sprague-Dawley rats; conditions: rats on 0.02% Ca diet, four consecutive ip doses; compared with 1,25(OH)2D3; FIG. 4
Description: as §1, with “FIG. 4 is a” for “FIG. 5 is a”, “comparing the bone calcium mobilization” for “comparing the intestinal calcium transport”, “bone calcium mobilization activity of” for “intestinal calcium transport activity of”

[5] = target: T2, full-length recombinant rat vitamin D receptor (Rattus norvegicus, UniProt P13053); assay: Vitamin D receptor competitive binding with [3H]-1,25-(OH)2-D3; conditions: competition with [3H]-1,25-(OH)2-D3; compared with 1,25(OH)2D3; FIG. 1
T2 construct: Full-length recombinant rat receptor was expressed in E. coli BL21(DE3) Codon Plus RIL cells; histidine tag (C); made in house; host or cells: E. coli BL21(DE3) Codon Plus RIL
T2 sequence (P13053 1-423): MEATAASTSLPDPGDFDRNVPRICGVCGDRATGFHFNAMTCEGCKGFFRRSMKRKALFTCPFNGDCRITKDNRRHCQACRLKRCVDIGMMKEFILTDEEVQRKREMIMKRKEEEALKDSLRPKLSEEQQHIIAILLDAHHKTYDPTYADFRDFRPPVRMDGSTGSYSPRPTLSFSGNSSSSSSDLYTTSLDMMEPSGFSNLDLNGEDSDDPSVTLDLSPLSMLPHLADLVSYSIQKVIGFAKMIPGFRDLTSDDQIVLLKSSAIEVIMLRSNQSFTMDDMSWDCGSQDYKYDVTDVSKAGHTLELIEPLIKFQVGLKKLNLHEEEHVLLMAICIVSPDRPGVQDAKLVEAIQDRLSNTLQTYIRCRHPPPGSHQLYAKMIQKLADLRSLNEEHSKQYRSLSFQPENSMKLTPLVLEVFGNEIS
Description: FIG. 1 is a graph comparing the relative activity of (20S/24S) 2-MD2 and 1,25(OH)2D3 to compete for binding with [^3H]-1,25-(OH)2-D3 to the full-length recombinant rat vitamin D receptor.
Full-length recombinant rat receptor was expressed in E. coli BL21(DE3) Codon Plus RIL cells and purified to homogeneity using two different column chromatography systems. The first system was a nickel affinity resin that utilizes the C-terminal histidine tag on this protein. The protein that was eluted from this resin was further purified using ion exchange chromatography (S-Sepharose Fast Flow). Aliquots of the purified protein were quick frozen in liquid nitrogen and stored at −80° C. until use. For use in binding assays, the protein was diluted in TEDK50 (50 mM Tris, 1.5 mM EDTA, pH 7.4, 5 mM DTT, 150 mM KCl) with 0.1% Chaps detergent. […]
Unlabeled ligands were dissolved in ethanol and the concentrations determined using UV spectrophotometry (1,25(OH)2D3:molar extinction coefficient=18,200 and λmax=265 nm; Analogs: molar extinction coefficient=42,000 and λmax=252 nm). […]
Radiolabeled and unlabeled ligands were added to 100 mcl of the diluted protein at a final ethanol concentration of ≦10%, mixed and incubated overnight on ice to reach binding equilibrium. […] Total binding was determined from the tubes containing only radiolabeled ligand.

Molecule | calcemic activity as compared to 1α,25-dihydroxyvitamin D3 (calcemic activity) | binding activity to vitamin D receptors (vitamin D receptors) | cell differentiation activity (cell differentiation) | intestinal calcium transport [1] | causing transcription relative to 1,25-(OH)2D3 [2] | inducing differentiation of HL-60 cells relative to native hormone [3] | bone calcium mobilizing activity [4] | binding to the vitamin D receptor relative to native hormone [5]
1α-hydroxy-2-methylene-19-nor-(20S)-homopregnacalciferol | little if any | relatively high | relatively high |  |  |  |  | 
1α-hydroxy-2-methylene-19-nor-bishomopregnacalciferol | little if any | relatively high | relatively high |  |  |  |  | 
C=C1[C@H](O)CC(=C/C=C2\CCC[C@]3(C)C([C@@H](C)/C=C/[C@H](C)C(C)(C)O)CC[C@@H]23)C[C@H]1O (stereo in doubt) [2-methylene-19-nor-(20S-24S)-1α,25-dihydroxyvitamin D2] |  |  |  | does retain some ability to elevate intestinal calcium transport | slightly more effective than 1,25-(OH)2D3 | almost equal to the native hormone | comparable to 1,25(OH)2D3 | almost equal to the native hormone
C=C1[C@H](O)CC(=C/C=C2\CCC[C@]3(C)[C@@H](CC)CC[C@@H]23)C[C@H]1O [1α-Hydroxy-2-methylene-19-nor-pregnacalciferol] | little if any | relatively high | relatively high |  |  |  |  | 
